Results from patent US8524659B2, “RNA virus-derived peptides with modified side chains” (National Taiwan University, priority 2011, dated 2013).

How the values were obtained:
HIV TAR RNA [1] = test: Fluorescence anisotropy binding of Tat peptides to fluorescein-labeled TAR RNA
Procedure: The binding affinity of XaaTat peptides (Xaa=Agh, Arg and Agb) for TAR RNA was measured by fluorescence anisotropy using a Varian Cary Eclipse fluorescence spectrophotometer. The anisotropy (r) was calculated using the following equation: […]
where Ivv, Ivh, Ihh, Ihv are the fluorescence intensities with the excitation polarizer and emission polarizer is oriented perpendicular (Ivh and Ihv) and parallel (Ivv and Ihh) to the direction of the polarized excitation. The fluorescein-labeled TAR RNA (F-TAR-RNA) was excited at 490 nm and the polarized emissions were monitored at 512 nm. The slits were set at 10 nm for both excitation and emission. The integration time was 20 seconds. All data were measured in a Sub-Micro (Starna Cell, Inc.) with a starting volume of 160 μL. Each addition (1 μL) of XaaTat was equilibrated for two minutes before the fluorescence signal was recorded. All experiments were performed at room temperature in TKT buffer (TKT: 50 mM Tris-HCl, pH 7.4, 20 mM KCl and 0.02% Tween20). The initial concentration of F-TAR-RNA was 25 nM. The TKT solution and peptide stock solution were both equilibrated at room temperature more than 20 minutes before the experiment. The experiment was repeated three times independently. For every single point, three measurements were performed and the average value was used for deriving the apparent (apparent KD). The apparent for the peptide-RNA complex was derived by fitting the data assuming a 1:1 peptide-RNA stoichiometry. The fitting was performed using Kaleidagraph 3.52. (Synergy Software, CA).

HIV TAR RNA [2] = test: Gel shift assay (EMSA) with fluorescein-labeled TAR RNA in the presence of poly(dI-dC); assay type: binding
Procedure: The fluorescein-labeled TAR RNA (F-TAR-RNA) was purchased from Sigma. F-TAR-RNA was dissolved in diethyl pyrocarbonate treated H2O to give a 50 μM solution. Binding assays were performed at room temperature. Peptide and RNA were incubated in pH 7.4 buffer (10 μL) containing Tris-HCl (50 mM), KCl (50 mM), poly-dIdC (10 μg/mL), 2% glycerol, and Triton X-100 (0.05%). The F-TAR-RNA concentration was 100 nM. The samples were analyzed by loading into 12% native polyacrylamide gels in […] and electrophoresis was performed with 140 V at room temperature. Dried gels were scanned by the Typhoon TRIO+ Variable Mode Imager. Bands corresponding to the free and bound RNA were quantified using ImageQuant software. The apparent dissociation constants were globally derived from the quantified data assuming a 1:1 binding stoichiometry.

Jurkat cells = test: MTT assay for determining cell survival; assay type: cell-based; details: 7 μM and 30 μM peptide, 4 hours, 37° C., FIG. 4
Procedure: The cells were grown to appropriate cell density (roughly 2×10^6 cells/mL) and transferred into new media one day before performing the experiment. For each assay, 8×10^5 cells as determined by a hemocytometer were added into an eppendorf. The cells were centrifuged at 2200 rpm for 5 minutes. The supernatant was removed by suction. Then 200 μL of 7 μM or 30 μM XaaTat peptide was added. The cells were incubated for 4 hours at 37° C. and then centrifuged at 2200 rpm for 5 minutes. The cells were washed with RPMI medium twice, and then 200 μL of 0.5 mg/mL MTT in serum free RPMI buffer was added and incubated at 37° C. for 3.5 hours. The cells were then centrifuged at 4000 rpm for 5 minutes. The supernatant was then transferred to two wells (100 μL each) of a 96-well plate. Then 400 μL DMSO was added to the cells in the assaying eppendorf. The eppendorf was then vortexed for 5 minutes to solubilize the MTT purple crystals, and centrifuged at 2200 rpm for 5 minutes. Then the supernatant was transferred to 4 wells (100 μL each) of the 96-well plate for analysis. The absorbance at 570 was determined for each well using a microplate reader with the absorbance at 655 nm used for background correction. A standard curve was generated using different number of cells (8×10^5, 4×10^5 and 2×10^5). The absorbance for each sample for each peptide at each concentration was then correlated to the number of live cells based on the standard curve.

[3] = Table 2, read-out: KD, binding affinity of Tat-peptide and TAR RNA by fluorescence anisotropy assay
[4] = in the presence of poly(dI-dC) at 25° C., Table 3, read-out: KD, dissociation constant of Tat-peptide and TAR RNA by gel shift assay

Compound | Kd (HIV TAR RNA [1]; [3]) | Kd (HIV TAR RNA [2]; [4]) | Cytotoxicity (cell survival) (Jurkat cells) | also measured
Ac-Tyr-Gly-Cit-Lys-Lys-Arg-Arg-Gln-Arg-Arg-Arg-NH2 [Tat-Cit49] | 94 ± 13 nM | 138 ± 21 nM |  | 
Ac-Tyr-Gly-Arg-Lys-Lys-Arg-Arg-Gln-Arg-Cit-Arg-NH2 [Tat-Cit56] | 55 ± 9 nM | 164 ± 40 nM |  | 
Ac-Tyr-Gly-Arg-Lys-Lys-Arg-Arg-Gln-Cit-Arg-Arg-NH2 [Tat-Cit55] | 99 ± 14 nM | 279 ± 74 nM |  | 
Ac-Tyr-Gly-Arg-Lys-Lys-Arg-Cit-Gln-Arg-Arg-Arg-NH2 [Tat-Cit53] | 102 ± 11 nM | 344 ± 73 nM |  | 
CC(=O)N[C@@H](Cc1ccc(O)cc1)C(=O)NCC(=O)N[C@@H](CCNC(=N)N)C(=O)N[C@@H](CCCCN)C(=O)N[C@@H](CCCCN)C(=O)N[C@@H](CCNC(=N)N)C(=O)N[C@@H](CCNC(=N)N)C(=O)N[C@@H](CCC(N)=O)C(=O)N[C@@H](CCNC(=N)N)C(=O)N[C@@H](CCNC(=N)N)C(=O)N[C@@H](CCNC(=N)N)C(N)=O [AgbTat, Ac-Tyr-Gly-Agb-Lys-Lys-Agb-Agb-Gln-Agb-Agb-Agb-NH2] |  |  | minimal cytotoxicity | 
CC(=O)N[C@@H](Cc1ccc(O)cc1)C(=O)NCC(=O)N[C@@H](CCCNC(=N)N)C(=O)N[C@@H](CCCCN)C(=O)N[C@@H](CCCCN)C(=O)N[C@@H](CCCNC(=N)N)C(=O)N[C@@H](CCCNC(=N)N)C(=O)N[C@@H](CCC(N)=O)C(=O)N[C@@H](CCCNC(=N)N)C(=O)N[C@@H](CCCNC(=N)N)C(=O)N[C@@H](CCCNC(=N)N)C(N)=O [ArgTat, Ac-Tyr-Gly-Arg-Lys-Lys-Arg-Arg-Gln-Arg-Arg-Arg-NH2, reference compound] | 25 ± 3 nM | 67 ± 19 nM | minimal cytotoxicity | Kd (HIV TAR RNA [1]; fluorescence anisotropy, 25 nM fluorescein-labeled HIV TAR RNA, absence of poly(dI-dC), 1:1 stoichiometry, read-out: Apparent KD HIV TAR RNA): 25 ± 3 nM; Kd (HIV TAR RNA [2]; EMSA, 100 nM fluorescein-labeled HIV TAR RNA, 10 μg/mL poly(dI-dC), 1:1 stoichiometry, read-out: Apparent KD HIV TAR RNA with poly(dI-dC)): 67 ± 19 nM; Effect of poly(dI-dC) on binding affinity for TAR RNA (specificity) (HIV TAR RNA [2]; comparison of absence and presence of poly(dI-dC), Table 1): somewhat affected; Kd (HIV TAR RNA [2]; in the presence of 10 μg/mL poly(dI-dC), FIG. 9, read-out: KD of peptide and TAR-RNA by gel shift assay): 67 ± 19 nM
Ac-Tyr-Gly-Arg-Lys-Lys-Arg-Arg-Gln-Arg-Arg-Cit-NH2 [Tat-Cit57] | 49 ± 6 nM | 146 ± 30 nM |  | 
CC(=O)N[C@@H](Cc1ccc(O)cc1)C(=O)NCC(=O)N[C@@H](CCCCNC(=N)N)C(=O)N[C@@H](CCCCN)C(=O)N[C@@H](CCCCN)C(=O)N[C@@H](CCCCNC(=N)N)C(=O)N[C@@H](CCCCNC(=N)N)C(=O)N[C@@H](CCC(N)=O)C(=O)N[C@@H](CCCCNC(=N)N)C(=O)N[C@@H](CCCCNC(=N)N)C(=O)N[C@@H](CCCCNC(=N)N)C(N)=O [AghTat, Ac-Tyr-Gly-Agh-Lys-Lys-Agh-Agh-Gln-Agh-Agh-Agh-NH2] |  |  | minimal cytotoxicity | 
Ac-Tyr-Gly-Arg-Lys-Lys-Cit-Arg-Gln-Arg-Arg-Arg-NH2 [Tat-Cit52] | 116 ± 17 nM | 235 ± 45 nM |  | 
